Assay results as given in BigSolDB 2.1.

SMILES: Cc1c(C(=O)O)cccc1[N+](=O)[O-]
- solubility (mole fraction) (in 1,4-dioxane, 288.15 K): 0.0933
- solubility (mole fraction) (in 1,4-dioxane, 293.15 K): 0.102
- solubility (mole fraction) (in 1,4-dioxane, 298.15 K): 0.112
- solubility (mole fraction) (in 1,4-dioxane, 303.15 K): 0.121
- solubility (mole fraction) (in 1,4-dioxane, 308.15 K): 0.132
- solubility (mole fraction) (in 1,4-dioxane, 313.15 K): 0.143
- solubility (mole fraction) (in DMF, 278.15 K): 0.147
- solubility (mole fraction) (in DMF, 283.15 K): 0.166
- solubility (mole fraction) (in DMF, 288.15 K): 0.191
- solubility (mole fraction) (in DMF, 293.15 K): 0.217
- solubility (mole fraction) (in DMF, 298.15 K): 0.244
- solubility (mole fraction) (in DMF, 303.15 K): 0.275
- solubility (mole fraction) (in DMF, 308.15 K): 0.31
- solubility (mole fraction) (in DMF, 313.15 K): 0.35
- solubility (mole fraction) (in acetonitrile, 278.15 K): 0.00434
- solubility (mole fraction) (in acetonitrile, 283.15 K): 0.00523
- solubility (mole fraction) (in acetonitrile, 288.15 K): 0.00624
- solubility (mole fraction) (in acetonitrile, 293.15 K): 0.00737
- solubility (mole fraction) (in acetonitrile, 298.15 K): 0.00879
- solubility (mole fraction) (in acetonitrile, 303.15 K): 0.0104
- solubility (mole fraction) (in acetonitrile, 308.15 K): 0.0122
- solubility (mole fraction) (in acetonitrile, 313.15 K): 0.0143
- solubility (mole fraction) (in ethanol, 278.15 K): 0.0152
- solubility (mole fraction) (in ethanol, 283.15 K): 0.0181
- solubility (mole fraction) (in ethanol, 288.15 K): 0.0216
- solubility (mole fraction) (in ethanol, 293.15 K): 0.0254
- solubility (mole fraction) (in ethanol, 298.15 K): 0.0297
- solubility (mole fraction) (in ethanol, 303.15 K): 0.0349
- solubility (mole fraction) (in ethanol, 308.15 K): 0.041
- solubility (mole fraction) (in ethanol, 313.15 K): 0.0478
- solubility (mole fraction) (in ethyl acetate, 278.15 K): 0.0228
- solubility (mole fraction) (in ethyl acetate, 283.15 K): 0.0258
- solubility (mole fraction) (in ethyl acetate, 288.15 K): 0.0297
- solubility (mole fraction) (in ethyl acetate, 293.15 K): 0.0336
- solubility (mole fraction) (in ethyl acetate, 298.15 K): 0.0378
- solubility (mole fraction) (in ethyl acetate, 303.15 K): 0.0426
- solubility (mole fraction) (in ethyl acetate, 308.15 K): 0.0478
- solubility (mole fraction) (in ethyl acetate, 313.15 K): 0.0538
- solubility (mole fraction) (in isobutanol, 278.15 K): 0.00938
- solubility (mole fraction) (in isobutanol, 283.15 K): 0.0114
- solubility (mole fraction) (in isobutanol, 288.15 K): 0.014
- solubility (mole fraction) (in isobutanol, 293.15 K): 0.0166
- solubility (mole fraction) (in isobutanol, 298.15 K): 0.0201
- solubility (mole fraction) (in isobutanol, 303.15 K): 0.024
- solubility (mole fraction) (in isobutanol, 308.15 K): 0.028
- solubility (mole fraction) (in isobutanol, 313.15 K): 0.033
- solubility (mole fraction) (in isopropanol, 278.15 K): 0.0133
- solubility (mole fraction) (in isopropanol, 283.15 K): 0.0161
- solubility (mole fraction) (in isopropanol, 288.15 K): 0.019
- solubility (mole fraction) (in isopropanol, 293.15 K): 0.0224
- solubility (mole fraction) (in isopropanol, 298.15 K): 0.0266
- solubility (mole fraction) (in isopropanol, 303.15 K): 0.0314
- solubility (mole fraction) (in isopropanol, 308.15 K): 0.0362
- solubility (mole fraction) (in isopropanol, 313.15 K): 0.0426
- solubility (mole fraction) (in isopropyl acetate, 278.15 K): 0.0146
- solubility (mole fraction) (in isopropyl acetate, 283.15 K): 0.017
- solubility (mole fraction) (in isopropyl acetate, 288.15 K): 0.0196
- solubility (mole fraction) (in isopropyl acetate, 293.15 K): 0.023
- solubility (mole fraction) (in isopropyl acetate, 298.15 K): 0.027
- solubility (mole fraction) (in isopropyl acetate, 303.15 K): 0.031
- solubility (mole fraction) (in isopropyl acetate, 308.15 K): 0.0361
- solubility (mole fraction) (in isopropyl acetate, 313.15 K): 0.0413
- solubility (mole fraction) (in methanol, 278.15 K): 0.0136
- solubility (mole fraction) (in methanol, 283.15 K): 0.016
- solubility (mole fraction) (in methanol, 288.15 K): 0.0193
- solubility (mole fraction) (in methanol, 293.15 K): 0.0225
- solubility (mole fraction) (in methanol, 298.15 K): 0.0264
- solubility (mole fraction) (in methanol, 303.15 K): 0.0312
- solubility (mole fraction) (in methanol, 308.15 K): 0.0367
- solubility (mole fraction) (in methanol, 313.15 K): 0.0424
- solubility (mole fraction) (in methyl acetate, 278.15 K): 0.0265
- solubility (mole fraction) (in methyl acetate, 283.15 K): 0.0302
- solubility (mole fraction) (in methyl acetate, 288.15 K): 0.0338
- solubility (mole fraction) (in methyl acetate, 293.15 K): 0.038
- solubility (mole fraction) (in methyl acetate, 298.15 K): 0.0428
- solubility (mole fraction) (in methyl acetate, 303.15 K): 0.0483
- solubility (mole fraction) (in methyl acetate, 308.15 K): 0.0539
- solubility (mole fraction) (in methyl acetate, 313.15 K): 0.06
- solubility (mole fraction) (in n-butanol, 278.15 K): 0.0178
- solubility (mole fraction) (in n-butanol, 283.15 K): 0.0213
- solubility (mole fraction) (in n-butanol, 288.15 K): 0.0255
- solubility (mole fraction) (in n-butanol, 293.15 K): 0.0308
- solubility (mole fraction) (in n-butanol, 298.15 K): 0.0366
- solubility (mole fraction) (in n-butanol, 303.15 K): 0.0434
- solubility (mole fraction) (in n-butanol, 308.15 K): 0.0515
- solubility (mole fraction) (in n-butanol, 313.15 K): 0.0608
- solubility (mole fraction) (in n-butyl acetate, 278.15 K): 0.0165
- solubility (mole fraction) (in n-butyl acetate, 283.15 K): 0.0191
- solubility (mole fraction) (in n-butyl acetate, 288.15 K): 0.0227
- solubility (mole fraction) (in n-butyl acetate, 293.15 K): 0.0261
- solubility (mole fraction) (in n-butyl acetate, 298.15 K): 0.0296
- solubility (mole fraction) (in n-butyl acetate, 303.15 K): 0.034
- solubility (mole fraction) (in n-butyl acetate, 308.15 K): 0.039
- solubility (mole fraction) (in n-butyl acetate, 313.15 K): 0.0446
- solubility (mole fraction) (in n-propanol, 278.15 K): 0.016
- solubility (mole fraction) (in n-propanol, 283.15 K): 0.019
- solubility (mole fraction) (in n-propanol, 288.15 K): 0.0227
- solubility (mole fraction) (in n-propanol, 293.15 K): 0.027
- solubility (mole fraction) (in n-propanol, 298.15 K): 0.032
- solubility (mole fraction) (in n-propanol, 303.15 K): 0.0379
- solubility (mole fraction) (in n-propanol, 308.15 K): 0.0441
- solubility (mole fraction) (in n-propanol, 313.15 K): 0.0519
- solubility (mole fraction) (in n-propyl acetate, 278.15 K): 0.0191
- solubility (mole fraction) (in n-propyl acetate, 283.15 K): 0.0221
- solubility (mole fraction) (in n-propyl acetate, 288.15 K): 0.0251
- solubility (mole fraction) (in n-propyl acetate, 293.15 K): 0.0293
- solubility (mole fraction) (in n-propyl acetate, 298.15 K): 0.0335
- solubility (mole fraction) (in n-propyl acetate, 303.15 K): 0.038
- solubility (mole fraction) (in n-propyl acetate, 308.15 K): 0.0432
- solubility (mole fraction) (in n-propyl acetate, 313.15 K): 0.049
